Laboratory results as given in patent US20250296953A1, “3,4-THIAZOLO-STEROIDS AND METHODS OF MAKING AND USING THE SAME” (Arkansas State University - Jonesboro, priority 2018, published 2025).
Where two headings read alike, the source gives them in different places.

Key:
gliosarcoma (SF-539) = test: NCI 60 five dose screen
[1] = tested on: 60 different human tumor cell lines; test: cells

## C[C@]12CCc3nc(Nc4ccc(O)cc4)sc3C1=CC[C@@H]1[C@@H]2CC[C@]2(C)C(=O)CC[C@@H]12 [IIa.35]
Gliosarcoma (SF-539); SF-539 (CNS Cancer), five dose
  GI50: 1.76 µM
  TGI: 3.59E−6
Gliosarcoma (SF-539); read-out: LC50, SF-539 (CNS Cancer), five dose
  CC50: 7.34 µM

## C[C@]12CC[C@H]3[C@@H](CC=C4c5sc(-c6ccc(O)cc6)nc5CC[C@@]43C)[C@@H]1CC[C@@H]2O [III.5, (1S,2R,13R,14S,17S,18S)-7-(4-hydroxyphenyl)-2,18-dimethyl-8-thia-6-azapentacyclo[11.7.0.02,10.05,9.014,18]icosa-5(9),6,10-trien-17-ol]
Gliosarcoma (SF-539); Homo sapiens, SF-539
  GI50: 0.454 µM
Gliosarcoma (SF-539); Homo sapiens, SF-539, read-out: LC50
  CC50: 91.7 µM
Gliosarcoma (SF-539); SF-539 (CNS Cancer), five dose
  TGI: 3.23E−6
[1]; 786-0
  GI50: 0.423 µM
[1]; 786-0, read-out: LC50
  CC50: 21.2 µM
[1]; A498
  GI50: 3.51 µM
[1]; A498, read-out: LC50
  CC50: > 100 µM
[1]; A549
  GI50: 5.95 µM
[1]; A549, read-out: LC50
  CC50: > 100 µM
[1]; ACHN
  GI50: 7.55 µM
[1]; ACHN, read-out: LC50
  CC50: > 100 µM
[1]; BT-549
  GI50: 1.14 µM
[1]; BT-549, read-out: LC50
  CC50: > 100 µM
[1]; CAKI-1
  GI50: 4.12 µM
[1]; CAKI-1, read-out: LC50
  CC50: > 100 µM
[1]; CCRF-CEM
  GI50: 2.05 µM
[1]; CCRF-CEM, read-out: LC50
  CC50: > 100 µM
[1]; COLO 205
  GI50: 9.14 µM
[1]; COLO 205, read-out: LC50
  CC50: > 100 µM
[1]; DU-145
  GI50: 9.54 µM
[1]; DU-145, read-out: LC50
  CC50: > 100 µM
[1]; EKVX
  GI50: 7.29 µM
[1]; EKVX, read-out: LC50
  CC50: > 100 µM
[1]; HCC 2998
  GI50: 31.9 µM
[1]; HCC 2998, read-out: LC50
  CC50: > 100 µM
[1]; HCT-15
  GI50: 2.43 µM
[1]; HCT-15, read-out: LC50
  CC50: > 100 µM
[1]; HCT-116
  GI50: 2.37 µM
[1]; HCT-116, read-out: LC50
  CC50: > 100 µM
[1]; HL-60
  GI50: 4.08 µM
[1]; HL-60, read-out: LC50
  CC50: > 100 µM
[1]; HOP-62
  GI50: 5.25 µM
[1]; HOP-62, read-out: LC50
  CC50: > 100 µM
[1]; HT-29
  GI50: 3.13 µM
[1]; HT-29, read-out: LC50
  CC50: > 100 µM
[1]; Hs-578T
  GI50: 1.59 µM
[1]; Hs-578T, read-out: LC50
  CC50: > 100 µM
[1]; IGROV-1
  GI50: 11.1 µM
[1]; IGROV-1, read-out: LC50
  CC50: > 100 µM
[1]; K562
  GI50: 3.48 µM
[1]; K562, read-out: LC50
  CC50: > 100 µM
[1]; KM12
  GI50: 7.24 µM
[1]; KM12, read-out: LC50
  CC50: > 100 µM
[1]; LOX IMVI
  GI50: 2.67 µM
[1]; LOX IMVI, read-out: LC50
  CC50: > 100 µM
[1]; M14
  GI50: 2.86 µM
[1]; M14, read-out: LC50
  CC50: > 100 µM
[1]; MCF7
  GI50: 3.34 µM
[1]; MCF7, read-out: LC50
  CC50: > 100 µM
[1]; MDA-MB-231
  GI50: 6.98 µM
[1]; MDA-MB-231, read-out: LC50
  CC50: > 100 µM
[1]; MDA-MB-435
  GI50: 16.4 µM
[1]; MDA-MB-435, read-out: LC50
  CC50: > 100 µM
[1]; MDA-MB-468
  GI50: 5.13 µM
[1]; MDA-MB-468, read-out: LC50
  CC50: > 100 µM
[1]; MOLT-4
  GI50: 1.93 µM
[1]; MOLT-4, read-out: LC50
  CC50: > 100 µM
[1]; Malme-3M
  GI50: 3.76 µM
[1]; Malme-3M, read-out: LC50
  CC50: > 100 µM
[1]; NCI-H23
  GI50: 14 µM
[1]; NCI-H23, read-out: LC50
  CC50: > 100 µM
[1]; NCI-H226
  GI50: 27.4 µM
[1]; NCI-H226, read-out: LC50
  CC50: > 100 µM
[1]; NCI-H322M
  GI50: 31.1 µM
[1]; NCI-H322M, read-out: LC50
  CC50: > 100 µM
[1]; NCI-H460
  GI50: 4.94 µM
[1]; NCI-H460, read-out: LC50
  CC50: > 100 µM
[1]; NCI-H522
  GI50: 22.6 µM
[1]; NCI-H522, read-out: LC50
  CC50: > 100 µM
[1]; NCI/ADR-RES
  GI50: 6.77 µM
[1]; NCI/ADR-RES, read-out: LC50
  CC50: > 100 µM
[1]; OVCAR-3
  GI50: 8.67 µM
[1]; OVCAR-3, read-out: LC50
  CC50: > 100 µM
[1]; OVCAR-4
  GI50: 7.24 µM
[1]; OVCAR-4, read-out: LC50
  CC50: > 100 µM
[1]; OVCAR-5
  GI50: 13.3 µM
[1]; OVCAR-5, read-out: LC50
  CC50: > 100 µM
[1]; OVCAR-8
  GI50: 40.9 µM
[1]; OVCAR-8, read-out: LC50
  CC50: > 100 µM
[1]; RXF 393
  GI50: 0.377 µM
[1]; RXF 393, read-out: LC50
  CC50: 8.58 µM
[1]; SF-268
  GI50: 5.32 µM
[1]; SF-268, read-out: LC50
  CC50: > 100 µM
[1]; SK-MEL-2
  GI50: 4.42 µM
[1]; SK-MEL-2, read-out: LC50
  CC50: > 100 µM
[1]; SK-MEL-5
  GI50: 3.15 µM
[1]; SK-MEL-5, read-out: LC50
  CC50: 48.5 µM
[1]; SK-MEL-28
  GI50: 3.05 µM
[1]; SK-MEL-28, read-out: LC50
  CC50: > 100 µM
[1]; SK-OV-3
  GI50: 19 µM
[1]; SK-OV-3, read-out: LC50
  CC50: > 100 µM
[1]; SN12C, read-out: LC50
  CC50: > 100 µM
[1]; SNB-19
  GI50: 7.95 µM
[1]; SNB-19, read-out: LC50
  CC50: > 100 µM
[1]; SNB-75
  GI50: 1.84 µM
[1]; SNB-75, read-out: LC50
  CC50: > 100 µM
[1]; SW-620
  GI50: 8.4 µM
[1]; SW-620, read-out: LC50
  CC50: > 100 µM
[1]; T47D
  GI50: 10.3 µM
[1]; T47D, read-out: LC50
  CC50: > 100 µM
[1]; TK-10
  GI50: > 100 µM
[1]; TK-10, read-out: LC50
  CC50: > 100 µM
[1]; U-251
  GI50: 2.23 µM
[1]; U-251, read-out: LC50
  CC50: > 100 µM
[1]; UACC-62
  GI50: 2.43 µM
[1]; UACC-62, read-out: LC50
  CC50: > 100 µM
[1]; UACC-257
  GI50: 11.9 µM
[1]; UACC-257, read-out: LC50
  CC50: > 100 µM
[1]; UO-31
  GI50: 2.48 µM
[1]; UO-31, read-out: LC50
  CC50: > 100 µM
